# Experiments:
# iCasp9-GFP J2s = assay: cell viability / removal from monolayer culture (CellTiter-Glo); format: cell-based; settings: after CID exposure (500 nM, 50 nM, 5 nM in FIG. 1G)
# Source text: Inducible caspase-9 (iCasp9), which is activated by treatment with a small molecule chemical inducer of dimerization (CID; also known as rapalog, an analog of rapamycin) and leads to subsequent cell death through the intrinsic apoptosis pathway was utilized (FIG. 1A). The safety and efficacy of the iCasp9 transgene and CID have previously been shown in vitro and in vivo in animals and humans (A. Di Stasi, et al. (2011) dx.doi.org/10.1056/NEJMoa1106152; T. Gargett and M. P. Brown (2014) Front. Pharmacol. 5; K. C. Straathof, et al. (2005) Blood 105, 4247, each of which is herein incorporated by this reference). To generate inducible cells, 3T3-J2 fibroblasts (‘J2’) were transduced with lentivirus with a bidirectional expression cassette encoding iCasp9 and GFP genes (#15567 pMSCV-F-del Casp9.IRES.GFP; cloned to a lentivirus plasmid backbone with an SFFV promoter). FACS was used to enrich the infected population for the 15% highest-expression GFP+ cells. […]
# After iCasp9-GFP J2 fibroblasts were exposed to CID, iCasp9 dimers were detected by staining with a caspase-9 antibody (FIG. 1C). […] To confirm that CID-triggered caspase-9 activation led to apoptosis, unfixed cells were stained with Annexin V, which binds to an early indicator of apoptosis, and SYTOX, a general marker of cell death, and analyzed by flow cytometry.
# [1] = system: primary human hepatocytes; assay: hepatocyte albumin and urea in tri-culture microfluidic devices; format: cell-based; settings: 50 nM CID after 5 days of tri-culture
# Source text: Specifically, MPCC were fabricated as described previously (S. R. Khetani and S. N. Bhatia (2005) Nat. Biotechnol 26, 120; S. March et al. (2015) Nat. Protoc. 10, 2007). Briefly, collagen was adsorbed in each well of a 96 well plate (glass bottom), and then patterned using an elastomeric polydimethysiloxane mold and oxygen plasma gas ablation. Human hepatocytes were thawed and seeded (70 k/well) on the collagen islands (500 μm with 1,200 μm center-to-center spacing). Adhered hepatocytes (˜10 k/well) were allowed to spread overnight before fibroblasts were seeded for co-culture (7 k/well). Supernatant was collected from cultures every other day and stored at −20° C. Human albumin was quantified using an enzyme-linked immunosorbent assay using a sheep anti-rat albumin antibody (ELISA) (Bethyl Laboratories) and 3,3′,5,5′-tetramethylbenzidine (TMB, Thermo Fisher). Urea concentration was measured using a colorimetric (diacetylmonoxime) assay with acid and heat (Stanbio Labs). CYP3A4 activity was assessed with the luminogenic P450-GloTM CYP450 assay kit (Promega) for nonlytic assays using cultured cells. Cultures were pre-treated with 2 μM rifampin or 1:1,000 DMSO vehicle control prepared in hepatocyte maintenance media for 72 hours (daily replenishment) where indicated.
# Given that fibroblasts are only transiently required for supporting the formation of a functional vasculature, it was investigated whether CAMEO could be used in the vascularization of tissue constructs with organ-specific parenchymal cells without negatively affecting the function of the parenchymal cells. To investigate this, a tri-culture system of HUVECs, iCasp9-HDFs, and primary human hepatocytes was employed in the microfluidic device. […] To evaluate whether the hepatocytes remained functional after CID treatment, levels of albumin and urea, markers for hepatic protein synthesis function and nitrogen metabolism, respectively, were measured in the media.
# iCasp9-HLF = assay: HUVEC/iCasp9-HLF tissue constructs implanted in mouse fat pad; format: in vivo, mice; settings: 10 mg/kg intraperitoneally on days 5, 7, 9
# Experimental: The ability to successfully transplant the described tissue constructs was assessed in mice. Specifically, engineered tissue constructs consisting of HUVECs and iCasp9-human lung fibroblasts (iCasp9-HLF, see Example 7) were cultured for 7 days in vitro. Constructs were then implanted into the intraperitoneal mesenteric parametrial fat pad of mice. Five days after implantation, mice were injected with 10 mg/kg CID or vehicle intraperitoneally. Mice were dosed again on days 7 and 9. Constructs were collected from mice on day 10 post-implantation. Explants were cryosectioned and imaged to visualize the presence of cells.
compound,measurement,setting,value
"CC[C@H](C(=O)N1CCCC[C@H]1C(=O)O[C@H](CCc1ccc(OC)c(OC)c1)c1cccc(OCC(=O)NCC(CNC(=O)COc2cccc([C@@H](CCc3ccc(OC)c(OC)c3)OC(=O)[C@@H]3CCCCN3C(=O)[C@@H](CC)c3cc(OC)c(OC)c(OC)c3)c2)CN(C)C)c1)c1cc(OC)c(OC)c(OC)c1 [CID, AP20187]",time to efficient removal from culture,iCasp9-GFP J2s,≤ 1 h
same,secretive functions of the hepatocytes,[1],did not negatively affect
same,secreted albumin versus vehicle control,[1]; day 7,statistically higher level
same,secreted urea versus vehicle control,[1]; day 7,statistically higher level
same,integration of engineered vessels with host vessels (anti-TER119),iCasp9-HLF; collected day 10,demonstrated vessel integration
same,iCasp9-HLF in explants compared to vehicle treated mice,iCasp9-HLF; collected day 10 post-implantation,reduction

# From patent publication US20240287463A1, “INDUCIBLE TISSUE CONSTRUCTS AND USES THEREOF” (Massachusetts Institute of Technology, priority 2020, published 2024)
